Test [1] concerns Human immunodeficiency virus 1. Briefly: Antiviral activity against HIV1 assessed as cytoprotective activity against viral-infection by NCI primary screen. It counts as functional, organism-based.
Test [2] deals with Human immunodeficiency virus 2. Description: Antiviral activity against HIV2 assessed as cytoprotective activity against viral-infection by NCI primary screen. Type of test: functional, organism-based.

Active and inactive are the calls of the source. The rule behind the calls is not given here.

EC50 and Activity data for two molecules are collected here from ChEMBL document CHEMBL1149033, “Novel HIV-inhibitory halistanol sulfates F-H from a marine sponge, Pseudoaxinissa digitata” (J Nat Prod, 1994).

In general, EC50 refers to the concentration at which the effect is half-maximal.

For `CCC(C)(C)C(C)CC[C@@H](C)[C@H]1CC[C@H]2[C@@H]3C[C@H](OS(=O)(=O)[O-])[C@H]4C[C@H](OS(=O)(=O)[O-])[C@@H](OS(=O)(=O)[O-])C[C@]4(C)[C@H]3CC[C@]12C.[Na+].[Na+].[Na+]` (some centres undefined) [HALISTANOL SULFATE F], the EC50 in test [1] was 3 µg/mL. For the same molecule, the outcome in test [2] was Active.
Turning to `CC(C)[C@@H](C)CC[C@@H](C)[C@H]1CC[C@H]2[C@@H]3C[C@H](OS(=O)(=O)[O-])[C@H]4C[C@H](OS(=O)(=O)[O-])[C@@H](OS(=O)(=O)[O-])C[C@]4(C)[C@H]3CC[C@]12C.[Na+].[Na+].[Na+]` [HALISTANOL SULFATE G SODIUM], in test [1], the EC50 was found to be 6 µg/mL. Moreover, in test [2], the result was Active.
